# Results as given in patent publication US20240390340A1 (INCYTE CORPORATION, priority 2023, published 2024).
# Where two headings read alike, the source gives them in different places.
# Tests used:
# KRAS G12D = KRAS G12D (Homo sapiens, UniProt P01116, G12D); assay: GDP-GTP exchange assay (bodipy-GDP/GppNHp, SOS1), KRAS G12D; assay type: biochemical
# KRAS G12V = KRAS G12V (Homo sapiens, UniProt P01116, G12V); assay: GDP-GTP exchange assay (bodipy-GDP/GppNHp, SOS1), KRAS G12V; assay type: biochemical
# Sequence of KRAS G12V (P01116 1-188 isoform P01116-2 G12V): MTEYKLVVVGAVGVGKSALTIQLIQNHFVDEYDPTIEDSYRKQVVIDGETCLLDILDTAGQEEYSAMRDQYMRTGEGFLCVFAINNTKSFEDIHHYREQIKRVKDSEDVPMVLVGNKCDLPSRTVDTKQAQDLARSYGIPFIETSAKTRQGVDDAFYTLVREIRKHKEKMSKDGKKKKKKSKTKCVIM
# [1] = bodipy-loaded KRAS G12D 2.5 nM, 4 h pre-incubation, value for the most potent isomer quoted for certain compounds, read-out: G12D (KRAS G12D exchange assay IC50)
# [2] = KRAS G12V mutant, value for the most potent isomer quoted for certain compounds, read-out: G12V (KRAS G12V exchange assay IC50)
# Sequence of KRAS G12D (P01116 1-188 isoform P01116-2 G12D): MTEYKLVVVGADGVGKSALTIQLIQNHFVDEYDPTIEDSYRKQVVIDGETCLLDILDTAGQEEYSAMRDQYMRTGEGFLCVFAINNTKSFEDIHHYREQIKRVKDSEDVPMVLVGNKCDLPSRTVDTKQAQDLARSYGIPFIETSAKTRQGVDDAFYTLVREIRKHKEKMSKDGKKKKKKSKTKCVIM
Structure (SMILES),IC50 (KRAS G12D; [1]) [µM],IC50 (KRAS G12V; [2]) [µM],"IC50 (KRAS G12D; Table H, column G12D, for compounds isolated as several atropisomers/diastereoisomers the value for the most potent isomer is quoted, read-out: KRAS G12D exchange assay IC50) [µM]","IC50 (KRAS G12V; Table H, column G12V, for compounds isolated as several atropisomers/diastereoisomers the value for the most potent isomer is quoted, read-out: KRAS G12V exchange assay IC50) [µM]"
Cc1nc2c(F)c(-c3cccc(Cl)c3Cl)c(CCC#N)cc2c2c1cc([C@H]1C[C@H](n3nc(CC#N)nc3C)CN1C(=O)C1CC1)n2[C@H]1[C@H]2CN[C@@H]1C2 [Example 351],≤ 0.1,≤ 0.1,–,–
Cc1nc2c(F)c(-c3cccc(Cl)c3Cl)c(CCC#N)cc2c2c1cc([C@H]1C[C@H](Oc3ccnc(C4CCC4)c3)CN1C(=O)C1CC1)n2[C@H]1[C@H]2CN[C@@H]1C2 [Example 421],≤ 0.1,≤ 0.1,–,–
Cc1nc2c(F)c(-c3cccc(Cl)c3Cl)c(CCC#N)cc2c2c1cc([C@H]1C[C@H](n3cc(C(C)(C)C(F)F)nn3)CN1C(=O)C1CC1)n2[C@H]1C2CNC1C2 (stereo partly drawn) [Example 225],≤ 0.1,≤ 0.1,–,–
Cc1nc2c(F)c(-c3cccc(Cl)c3Cl)c(CCC#N)cc2c2c1cc([C@H]1C[C@H](Oc3c(F)cc(C#N)cc3F)CN1C(=O)C1CC1)n2[C@H]1[C@H]2CN[C@@H]1C2 [Example 293],≤ 0.1,≤ 0.1,–,–
Cc1nc2c(F)c(-c3cccc(Cl)c3Cl)c(CCC#N)cc2c2c1cc([C@H]1C[C@H](OCc3ccccn3)CN1C(=O)C1CC1)n2[C@H]1[C@H]2CN[C@@H]1C2 [Example 94],≤ 0.1,≤ 0.1,–,–
Cc1nc2c(F)c(-c3cccc(Cl)c3Cl)c(CCC#N)cc2c2c1cc([C@H]1C[C@H](OCc3ccccn3)[C@@H](C)N1C(=O)C1CC1)n2[C@H]1[C@H]2CN[C@@H]1C2 [Example 243],≤ 0.1,≤ 0.1,–,–
Cc1nc2c(F)c(-c3cccc(Cl)c3Cl)c(CCC#N)cc2c2c1cc([C@H]1C[C@H](Oc3cccnc3C#N)CN1C(=O)C1CC1)n2[C@H]1[C@H]2CN[C@@H]1C2 [Example 294],≤ 0.1,≤ 0.1,–,–
Cc1nc2c(F)c(-c3cccc(Cl)c3Cl)c(CCC#N)cc2c2c1cc([C@H]1C[C@H](n3cnc(C4CC4)n3)CN1C(=O)C1CC1)n2[C@H]1[C@H]2CN[C@@H]1C2 [Example 278],≤ 0.1,≤ 0.1,–,–
Cc1nc2c(F)c(-c3cccc(Cl)c3Cl)c(CCC#N)cc2c2c1cc([C@H]1C[C@H](OCC3CCOCC3)CN1C(=O)C1CC1)n2[C@H]1[C@H]2CN[C@@H]1C2 [Example 413],≤ 0.1,≤ 0.1,–,–
Cc1nc2c(F)c(-c3cccc(Cl)c3Cl)c(CCC#N)cc2c2c1cc([C@H]1C[C@H](Oc3nccs3)CN1C(=O)C1CC1)n2[C@H]1[C@H]2CN[C@@H]1C2 [Example 341],≤ 0.1,≤ 0.1,–,–
Cc1nc2c(F)c(-c3cccc(Cl)c3Cl)c(CCC#N)cc2c2c1cc([C@H]1C[C@H](OCc3cncn3C)CN1C(=O)C1CC1)n2[C@H]1[C@H]2CN[C@@H]1C2 [Example 108],≤ 0.1,≤ 0.1,–,–
Cc1nc2c(F)c(-c3cccc(Cl)c3Cl)c(CCC#N)cc2c2c1cc([C@H]1C[C@H](n3nnc(CO)c3C)CN1C(=O)C1CC1)n2[C@H]1[C@H]2CN[C@@H]1C2 [Example 326],≤ 0.1,≤ 0.1,–,–
Cc1nc2c(F)c(-c3cccc(Cl)c3Cl)c(CCC#N)cc2c2c1cc([C@H]1C[C@H](n3cnc(C4CCC4)n3)CN1C(=O)C1CC1)n2[C@H]1[C@H]2CN[C@@H]1C2 [Example 347],≤ 0.1,≤ 0.1,–,–
Cc1nc2c(F)c(-c3cccc(Cl)c3Cl)c(CCC#N)cc2c2c1cc([C@H]1C[C@H](CCc3nccn3C)CN1C(=O)C1CC1)n2[C@H]1[C@H]2CN[C@@H]1C2 [Example 89],≤ 0.1,≤ 0.1,–,–
Cc1nc2c(F)c(-c3cccc(Cl)c3Cl)c(CCC#N)cc2c2c1cc([C@H]1C[C@H](OCc3c(Cl)cccc3Cl)CN1C(=O)C1CC1)n2[C@H]1[C@H]2CN[C@@H]1C2 [Example 116],≤ 0.1,≤ 0.1,–,–
Cc1nc2c(F)c(-c3cccc(Cl)c3Cl)c(CCC#N)cc2c2c1cc([C@H]1C[C@H](O[C@H]3CCOC3)CN1C(=O)C1CC1)n2[C@H]1[C@H]2CN[C@@H]1C2 [Example 365],≤ 0.1,≤ 0.1,–,–
Cc1ncn([C@H]2C[C@H](c3cc4c(C)nc5c(F)c(-c6cccc(Cl)c6Cl)c(CCC#N)cc5c4n3[C@H]3[C@H]4CN[C@@H]3C4)N(C(=O)C3CC3)C2)n1 [Example 277],≤ 0.1,≤ 0.1,–,–
Cc1nc2c(F)c(-c3cccc(Cl)c3Cl)c(CCC#N)cc2c2c1cc([C@H]1C[C@H](n3cc4c(n3)CCC4)CN1C(=O)C1CC1)n2[C@H]1[C@H]2CN[C@@H]1C2 [Example 356],≤ 0.1,≤ 0.1,–,–

Structure (SMILES),IC50 (KRAS G12D; [1]) [µM],IC50 (KRAS G12V; [2]) [µM],"IC50 (KRAS G12D; Table H, column G12D, for compounds isolated as several atropisomers/diastereoisomers the value for the most potent isomer is quoted, read-out: KRAS G12D exchange assay IC50) [µM]","IC50 (KRAS G12V; Table H, column G12V, for compounds isolated as several atropisomers/diastereoisomers the value for the most potent isomer is quoted, read-out: KRAS G12V exchange assay IC50) [µM]"
COCCn1cc(O[C@H]2C[C@H](c3cc4c(C)nc5c(F)c(-c6cccc(Cl)c6Cl)c(CCC#N)cc5c4n3[C@H]3[C@H]4CN[C@@H]3C4)N(C(=O)C3CC3)C2)cn1 [Example 441],≤ 0.1,≤ 0.1,–,–
Cc1nc2c(F)c(-c3cccc(Cl)c3Cl)c(CCC#N)cc2c2c1cc([C@H]1C[C@H](OCC3CC(F)(F)C3)CN1C(=O)C1CC1)n2[C@H]1[C@H]2CN[C@@H]1C2 [Example 445],≤ 0.1,≤ 0.1,–,–
Cc1nc2c(F)c(-c3cccc(Cl)c3Cl)c(CCC#N)cc2c2c1cc([C@H]1C[C@H](OCC3CCOCC3)CN1C(=O)C1CC1)n2[C@H]1[C@H]2CN[C@@H]1C2 [Example 29],–,–,≤ 0.1,≤ 0.1
Cc1nc2c(F)c(-c3cccc(Cl)c3Cl)c(CCC#N)cc2c2c1cc([C@H]1C[C@H](OCc3ccc(Cl)cc3F)CN1C(=O)C1CC1)n2[C@H]1[C@H]2CN[C@@H]1C2 [Example 155],≤ 0.1,≤ 0.1,–,–
CCc1nnn([C@H]2C[C@H](c3cc4c(C)nc5c(F)c(-c6cccc(Cl)c6Cl)c(CCC#N)cc5c4n3[C@H]3[C@H]4CN[C@@H]3C4)N(C(=O)C3CC3)C2)c1-c1ccccc1 [Example 392],≤ 0.1,≤ 0.1,–,–
Cc1cc(F)ncc1O[C@H]1C[C@H](c2cc3c(C)nc4c(F)c(-c5cccc(Cl)c5Cl)c(CCC#N)cc4c3n2[C@H]2[C@H]3CN[C@@H]2C3)N(C(=O)C2CC2)C1 [Example 283],≤ 0.1,≤ 0.1,–,–
COc1cc(O[C@H]2C[C@H](c3cc4c(C)nc5c(F)c(-c6cccc(Cl)c6Cl)c(CCC#N)cc5c4n3[C@H]3[C@H]4CN[C@@H]3C4)N(C(=O)C3CC3)C2)ccn1 [Example 304],≤ 0.1,≤ 0.1,–,–
Cc1nc2c(F)c(-c3cccc(Cl)c3Cl)c(CCC#N)cc2c2c1cc([C@H]1C[C@H](n3cccn3)CN1C(=O)C1CC1)n2[C@H]1[C@H]2CN[C@@H]1C2 [Example 314],≤ 0.1,≤ 0.1,–,–
Cc1nc2c(F)c(-c3cccc(Cl)c3Cl)c(CCC#N)cc2c2c1cc([C@H]1C[C@H](Oc3ccnn3C(F)(F)F)CN1C(=O)C1CC1)n2[C@H]1[C@H]2CN[C@@H]1C2 [Example 406],≤ 0.1,≤ 0.1,–,–
COc1cccc(CO[C@H]2C[C@H](c3cc4c(C)nc5c(F)c(-c6cccc(Cl)c6Cl)c(CCC#N)cc5c4n3[C@H]3[C@H]4CN[C@@H]3C4)N(C(=O)C3CC3)C2)n1 [Example 267],≤ 0.1,≤ 0.1,–,–
Cc1cc(C)cc(CO[C@H]2C[C@H](c3cc4c(C)nc5c(F)c(-c6cccc(Cl)c6Cl)c(CCC#N)cc5c4n3[C@H]3[C@H]4CN[C@@H]3C4)N(C(=O)C3CC3)C2)c1 [Example 123],≤ 0.1,≤ 0.1,–,–
Cc1nc2c(F)c(-c3cccc(Cl)c3Cl)c(CCC#N)cc2c2c1cc([C@H]1C[C@H](Oc3nccc4ccccc34)CN1C(=O)C1CC1)n2[C@H]1[C@H]2CN[C@@H]1C2 [Example 131],≤ 0.1,≤ 0.1,–,–
Cc1nc2c(F)c(-c3cccc(Cl)c3Cl)c(CCC#N)cc2c2c1cc([C@H]1C[C@H](OCc3cnnn3C)CN1C(=O)C1CC1)n2[C@H]1[C@H]2CN[C@@H]1C2 [Example 106],≤ 0.1,≤ 0.1,–,–
Cc1nc2c(F)c(-c3cccc(Cl)c3Cl)c(CCC#N)cc2c2c1cc([C@H]1C[C@H](OCc3cccc(F)c3C#N)CN1C(=O)C1CC1)n2[C@H]1[C@H]2CN[C@@H]1C2 [Example 156],≤ 0.1,≤ 0.1,–,–
Cc1nc2c(F)c(-c3cccc(Cl)c3Cl)c(CCC#N)cc2c2c1cc([C@H]1C[C@H](Oc3nn(C)c4ccccc34)CN1C(=O)C1CC1)n2[C@H]1[C@H]2CN[C@@H]1C2 [Example 192],≤ 0.1,≤ 0.1,–,–
Cc1nc2c(F)c(-c3cccc(Cl)c3Cl)c(CCC#N)cc2c2c1cc([C@H]1C[C@H](Oc3cnn(CC(F)F)c3C)CN1C(=O)C1CC1)n2[C@H]1[C@H]2CN[C@@H]1C2 [Example 410],≤ 0.1,≤ 0.1,–,–
CCOC(=O)c1cnn([C@H]2C[C@H](c3cc4c(C)nc5c(F)c(-c6cccc(Cl)c6Cl)c(CCC#N)cc5c4n3[C@H]3[C@H]4CN[C@@H]3C4)N(C(=O)C3CC3)C2)n1 [Example 393],≤ 0.1,≤ 0.1,–,–
Cc1ncccc1O[C@H]1C[C@H](c2cc3c(C)nc4c(F)c(-c5cccc(Cl)c5Cl)c(CCC#N)cc4c3n2[C@H]2[C@H]3CN[C@@H]2C3)N(C(=O)C2CC2)C1 [Example 129],≤ 0.1,≤ 0.1,–,–
